The target in data set [1] is T1, N-His Ich-1 (Homo sapiens, UniProt P42575).
T1 construct: contains Ich-1 amino acid residues 167-435, with an initiator and polyhistidine tag fused to the amino terminus; initiator (Met) + polyhistidine tag (N); made in house
T1 sequence (P42575 184-333): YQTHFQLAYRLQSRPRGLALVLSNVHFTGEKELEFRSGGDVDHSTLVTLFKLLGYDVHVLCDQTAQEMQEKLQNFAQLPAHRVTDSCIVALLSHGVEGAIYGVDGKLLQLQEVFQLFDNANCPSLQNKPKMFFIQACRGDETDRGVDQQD
T1 sequence (P42575 334-452): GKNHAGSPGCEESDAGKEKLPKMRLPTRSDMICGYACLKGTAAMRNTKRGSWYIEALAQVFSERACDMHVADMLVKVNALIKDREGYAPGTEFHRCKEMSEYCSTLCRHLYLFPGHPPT
Description: In vitro proteolysis assay with chromogenic para-nitroaniline-labeled peptide substrate (absorbance 405 nm). The format is biochemical. The text has this:
To identify peptide substrates for Ich-1, candidate peptides were used in in vitro proteolysis assays with recombinant Ich-1 protein. Human Ich-1 enzyme (the nucleotide and amino acid sequences for which are disclosed in Wang, L., et al. (1994) Cell 78:739-750) was expressed recombinantly with an N-terminal polyhistidine tag by methods described in Kamens, J., et al. (1995) J. Biol. Chem. 270:15250-15256. The resulting enzyme, called N-His Ich-1, contains Ich-1 amino acid residues 167-435, with an initiator and polyhistidine tag fused to the amino terminus. […]
A peptidic aldehyde inhibitor of Ich-1 was designed based upon the optimal peptide substrate (Peptide 43) described in Example 3. […] The ability of this peptidic aldehyde inhibitor to inhibit N-His Ich-1 activity was determined in in vitro proteolysis assays using a chromogenic para-nitroaniline-labeled peptide substrate. […]
To perform the proteolysis assay, N-His Ich-1 was preincubated for 30 minutes at 30° C. in 160 μl of a reaction buffer containing 100 mM sodium acetate (pH 6.2), 20% (v/v) glycerol, 5 mM DTT, 0.5 mM EDTA, […]. […] The incubation of N-His Ich-1 with the peptide substrate at 30° C. was continued, and the catalytic hydrolysis of peptide substrate was monitored by the change in absorbance of the samples at 405 nm due to release of pNA as a function of time. […]

Data set [2] has as its system N-His Ich-1. Description: reaction buffer containing 100 mM sodium acetate (pH 6.2), 20% (v/v) glycerol, 5 mM DTT, 0.5 mM EDTA, at pH 7.5. The conditions noted are these: Human, 30° C.

pIC50, pKi: −log10 of the molar value. Where a SMILES comes first, the peptide text is derived from it.

Broadly, the pIC50 is the IC50 on a negative log10 scale, so that one unit is a factor of ten. A high value points to a low IC50. Usually pKi stands for −log10 of the Ki, conventionally taken in molar units.

With `CC(=O)N[C@H](C(=O)N[C@@H](CC(=O)O)C(=O)N[C@H](C(=O)N[C@@H](C)C(=O)N[C@H](C=O)CC(=O)O)C(C)C)C(C)C` [Ac-VDVAD-CHO, acetyl-Val-Asp-Val-Ala-Asp-CHO] (Ac-VDVAD-aldehyde), at N-His Ich-1 [1] (500 μM pNA substrate, inhibitor 0.1 nM to 10 μM, sigmoidal fit), the negative logarithm of the IC50 (pIC50) is 8.10. In addition, the negative-log Ki (pKi) on N-His Ich-1 [1] (calculated from IC50, [S] and Km, read-out: apparent Ki) is 8.60.
For “acetyl-Val-Asp-Val-Ala-Asp-para-nitroaniline”, in the data set on N-His Ich-1 [2], the cleaved bond entry is recorded as “Asp-pNA”.

These data come from patent US6288037A (BASF Aktiengesellschaft, priority 1996, dated 2001).
